# Results: patent publication US6261814A, “Carboxylic acid reductase, and methods of using same” (University of Iowa Research Foundation, priority 1998, dated 2001)
# What was measured:
# [1] = molecular target: T1, carboxylic acid reductase (aryl aldehyde oxidoreductase) (Nocardia iowensis, UniProt Q6RKB1); assay: Substrate specificity of crude carboxylic acid reductase (100,000×g supernatant); type: biochemical, Nocardia sp. NRRL 5646; set-up: Crude enzyme preparations consisting of 100,000×g supernatants were used in this study; endogenous in cells; host or cells: Nocardia sp; NRRL 5646, crude 100,000×g supernatant; conditions: for Relative Activity: 5 mM substrate, 0.15 mM NADPH, 1 mM ATP, 50 mM Tris-HCl pH 7.5, percentage of the initial rate of benzoate reduction; for quality as substrate of the enzyme (in words): substrates of Table 2
# T1 sequence (Q6RKB1 whole entry): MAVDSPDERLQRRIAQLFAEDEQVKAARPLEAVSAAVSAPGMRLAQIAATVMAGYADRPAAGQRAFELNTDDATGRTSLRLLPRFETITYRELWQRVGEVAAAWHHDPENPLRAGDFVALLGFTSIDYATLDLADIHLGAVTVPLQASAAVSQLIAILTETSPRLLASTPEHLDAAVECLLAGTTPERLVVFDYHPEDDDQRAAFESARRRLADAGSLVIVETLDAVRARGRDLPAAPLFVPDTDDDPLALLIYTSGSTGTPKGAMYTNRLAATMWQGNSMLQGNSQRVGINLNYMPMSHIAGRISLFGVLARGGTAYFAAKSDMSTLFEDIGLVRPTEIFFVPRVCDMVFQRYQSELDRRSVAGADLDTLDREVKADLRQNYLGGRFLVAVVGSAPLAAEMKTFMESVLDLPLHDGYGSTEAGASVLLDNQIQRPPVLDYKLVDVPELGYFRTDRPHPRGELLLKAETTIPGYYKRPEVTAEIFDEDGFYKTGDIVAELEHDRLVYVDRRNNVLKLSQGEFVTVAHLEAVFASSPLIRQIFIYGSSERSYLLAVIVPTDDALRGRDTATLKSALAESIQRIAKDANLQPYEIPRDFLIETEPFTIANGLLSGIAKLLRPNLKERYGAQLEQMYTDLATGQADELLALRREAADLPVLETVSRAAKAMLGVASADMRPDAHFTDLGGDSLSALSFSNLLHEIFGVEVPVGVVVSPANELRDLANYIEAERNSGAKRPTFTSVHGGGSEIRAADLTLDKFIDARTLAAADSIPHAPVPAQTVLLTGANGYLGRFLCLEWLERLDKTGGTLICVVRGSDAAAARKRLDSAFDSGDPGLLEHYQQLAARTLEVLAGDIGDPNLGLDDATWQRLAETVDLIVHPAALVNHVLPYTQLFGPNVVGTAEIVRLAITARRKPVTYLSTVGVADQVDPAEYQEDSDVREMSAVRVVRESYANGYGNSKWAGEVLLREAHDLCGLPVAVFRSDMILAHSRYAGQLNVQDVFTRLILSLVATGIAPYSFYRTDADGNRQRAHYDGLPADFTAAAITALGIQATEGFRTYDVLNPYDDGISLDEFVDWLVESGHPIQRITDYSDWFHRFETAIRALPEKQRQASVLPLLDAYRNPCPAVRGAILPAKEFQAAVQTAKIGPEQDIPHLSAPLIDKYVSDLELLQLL
# Method: (§1) Enzyme assay. The standard aryl-aldehyde oxidoreductase assay solution contained 0.15 mM […], 1 mM ATP, and 5 mM sodium benzoate, 10 mM MgCl2 and 0.01 to 0.3 units of enzyme in 50 mM Tris-HCl buffer in a final volume of 0.7 ml. The reference cuvette contained all components except for benzoate. Enzyme reactions were initiated by adding enzyme, and they were monitored by recording the absorption decrease at 340 nm at 25° C. with a Shimadzu 160 spectrophotometer.
# Crude enzyme preparations consisting of 100,000×g supernatants were used in this study. […] The relative rate of reduction for each carboxylic acid derivative is expressed as the percentage of the initial rate of benzoate reduction.
# The range of oxidoreductase activities of crude, 100,000×g Nocardia extract with a variety of substrates was investigated. Various substituted 2-, 3- and 4-substituted benzoates were examined, including a range of ring-activating and ring-deactivating functional groups. Benzoates substituted with halogens, methyl, methoxy, hydroxy, acetyl, nitro, benzoyl, phenyl, and phenoxyl groups as well as aryl-ring systems containing two (naphthalene) and three (fluorene) rings, and heterocyclic aromatic acids including furoic, nicotinic and indole carboxylic acids were considered. In addition, one cinnamic acid derivative, phenyl-acetate, phenyl-malonate, phenyl-succinate and 2-phenylpropionic acid were studied.
# [2] = molecular target: T1, carboxylic acid reductase (aryl aldehyde oxidoreductase); assay: Kinetic properties of the purified carboxylic acid reductase (standard enzyme assay); conditions: for apparent Km relative to Km reported for the enzyme from Nocardia asteroides: higher than values reported by Kato et al.; for turn-over number: calculated assuming pure enzyme and one active site per molecule; for Vmax: mean of three determinations; for type of inhibition: versus benzoic acid
# Method: as §1
# Kinetic constants were obtained by fitting experimental data with the EZ-FIT program developed by Perrella (Perrella, Anal. Biochem. 174:437-447 (1987)).
# S(+)-α-Methyl-4-[2-methylpropyl]-benzeneacetic acid (ibuprofen) was from Aldrich Chemical Co. R(-) isomer of ibuprofen was a gift from Dr. Ching-Shih Chen, University of Rhode Island (Chen et al., Biochim. Biophys. Acta 1033:1-6 (1990)). […] Substrate enantiopurities were checked by specific rotation determination for each isomer (Chen and Rosazza, Appl. Environ. Microbiol. 60(4):1292-1296 (1994)).
# [3] = molecular target: T2, carboxylic acid reductase (Nocardia iowensis, UniProt Q6RKB1); assay: Enzymatic reduction of vanillic acid to vanillin by purified carboxylic acid reductase; type: biochemical, Nocardia sp. NRRL 5646; conditions: UV spectrophotometric assay at 340 nm; 30° C., 24 hours
# T2 construct: isolated and substantially purified from Nocardia sp. strain NRRL 5646; endogenous in cells; host or cells: Nocardia sp; NRRL 5646, benzoate-induced culture; enzyme purified by Mono-Q, Reactive Green 19 agarose and hydroxyapatite chromatography
# T2 sequence (Q6RKB1 whole entry): as above
# Method: The reaction mixture was incubated at 30° C. with gentle shaking for 24 hours, after which the entire reaction mixture was loaded onto a solid phase extraction cartridge (Chem Elut 1200, 200 ml aqueous solution capacity). After 5 min. of equilibration, the cartridge was washed with 2×100 ml of hexane, then washed again with 2×100 ml of dichloromethane (concentrated to less than 2 ml).
# The extract was then transferred to a vial and the solvent was removed with a stream of nitrogen to give about 8 mg of the purified vanillin end product.
# Mass spectrometry, ^1 H, and ^13 C NMR data confirmed that this compound was vanillin. The yield was determined to be 96% with UV spectrophotometric assay at 340 nm.
SMILES,Relative Activity [1] [percentage],further results
O=C(O)c1cccc2ccccc12 [1-naphthoic acid],77,–
CC(=O)c1ccccc1C(=O)O [2-acetyl-benzoic acid],4,–
CC(=O)Nc1ccccc1C(=O)O [2-acetylamino-benzoic acid],0,–
COc1ccccc1C(=O)O [2-anisic acid],3,–
O=C(O)c1ccccc1C(=O)c1ccccc1 [2-benzoyl-benzoic acid],0,–
O=C(O)c1ccccc1Br [2-bromo-benzoic acid],5,–
O=C(O)c1ccccc1Cl [2-chloro-benzoic acid],3,–
O=C(O)c1ccccc1F [2-fluoro-benzoic acid],57,–
O=C(O)c1ccco1 [2-furoic acid],18,–
O=C(O)c1ccccc1O [2-hydroxyl-benzoic acid],0,–
O=C(O)c1ccc2ccccc2c1 [2-naphthoic acid],95,quality as substrate of the enzyme (in words) [1]: best substrates
O=C(O)c1ccccc1[N+](=O)[O-] [2-nitro-benzoic acid],0,–
CC(C(=O)O)c1ccccc1 (stereo not shown) [2-phenyl propionic acid],16,quality as substrate of the enzyme (in words) [1]: slower rates than benzoate
O=C(O)c1ccccc1-c1ccccc1 [2-phenyl-benzoic acid],16,–
Cc1ccccc1C(=O)O [2-toluic acid],6,–
COc1cccc(C(=O)O)c1 [3-anisic acid],87,quality as substrate of the enzyme (in words) [1]: best substrates
O=C(O)c1cccc(C(=O)c2ccccc2)c1 [3-benzoyl-benzoic acid],53,–
O=C(O)c1cccc(Br)c1 [3-bromo-benzoic acid],105,quality as substrate of the enzyme (in words) [1]: best substrates
O=C(O)c1cccc(Cl)c1 [3-chloro-benzoic acid],124,quality as substrate of the enzyme (in words) [1]: best substrates
O=C(O)c1cccc(F)c1 [3-fluoro-benzoic acid],78,–
O=C(O)c1ccoc1 [3-furoic acid],22,–
O=C(O)c1cccc(O)c1 [3-hydroxyl-benzoic acid],77,–
COc1cccc(C=CC(=O)O)c1 [3-methoxy-cinnamic acid],8,–
O=C(O)c1cccc([N+](=O)[O-])c1 [3-nitro-benzoic acid],0,–
Cc1cccc(C(=O)O)c1 [3-toluic acid],4,–
CC(=O)c1ccc(C(=O)O)cc1 [4-acetyl-benzoic acid],20,–

SMILES,Relative Activity [1] [percentage],further results
CC(=O)Nc1ccc(C(=O)O)cc1 [4-acetylamino-benzoic acid],22,–
COc1ccc(C(=O)O)cc1 [4-anisic acid],36,–
O=C(O)c1ccc(C(=O)c2ccccc2)cc1 [4-benzoyl-benzoic acid],6,–
O=C(O)c1ccc(Br)cc1 [4-bromo-benzoic acid],72,–
O=C(O)c1ccc(F)cc1 [4-fluoro-benzoic acid],94,quality as substrate of the enzyme (in words) [1]: best substrates
O=C(O)c1ccc(O)cc1 [4-hydroxyl-benzoic acid],6,–
O=C(O)c1ccc([N+](=O)[O-])cc1 [4-nitro-benzoic acid],0,–
O=C(O)c1ccc(Oc2ccccc2)cc1 [4-phenoxy-benzoic acid],11,–
O=C(O)c1ccc(-c2ccccc2)cc1 [4-phenyl-benzoic acid],21,–
Cc1ccc(C(=O)O)cc1 [4-toluic acid],82,quality as substrate of the enzyme (in words) [1]: best substrates
Nc1ncnc2c1ncn2[C@@H]1O[C@H](COP(=O)(O)OP(=O)(O)OP(=O)(O)O)[C@@H](O)[C@H]1O [ATP],–,apparent Km relative to Km reported for the enzyme from Nocardia asteroides [2]: more than 1000 fold
NC(=O)C1=CN([C@@H]2O[C@H](COP(=O)(O)OP(=O)(O)OC[C@H]3O[C@@H](n4cnc5c(N)ncnc54)[C@H](OP(=O)(O)O)[C@@H]3O)[C@@H](O)[C@H]2O)C=CC1 [NADPH],–,apparent Km relative to Km reported for the enzyme from Nocardia asteroides [2]: more than 1000 fold
CC(C)Cc1ccc([C@@H](C)C(=O)O)cc1 [R(-)-ibuprofen],–,"turn-over number [2]: 21 min⁻¹; Vmax ([2]; purified enzyme, listed as R(-) isomer): 1.33+0.02 μmol/min/mg of protein; Vmax ([2]; purified enzyme, listed as R-(-)): 0.15 μmol/min/mg of protein"
"CC(C)Cc1ccc([C@H](C)C(=O)O)cc1 [S(+)-ibuprofen, S(+)-α-Methyl-4-[2-methylpropyl]-benzeneacetic acid]",–,"turn-over number [2]: 186 min⁻¹; Vmax ([2]; purified enzyme, listed as S(+) isomer): 0.148±0.003 μmol/min/mg of protein; Vmax ([2]; purified enzyme, listed as S-(+)): 1.33 μmol/min/mg of protein"
"Nc1ccccc1C(=O)O [anthranilic acid, 2-amino benzoic acid]",–,Ki [2]: 261 ± 30 µM; NADPH oxidation with the compound in place of benzoic acid ([2]; 5 mM in the enzyme assay solution): no NADPH oxidation was observed; type of inhibition ([2]; listed as 2-amino benzoic acid): typical competitive inhibitor; type of inhibition ([2]; listed as Anthranilic acid): competitive inhibitor
O=Cc1ccccc1 [benzaldehyde],–,reduction of benzaldehyde to benzyl alcohol ([2]; purified enzyme): did not reduce
O=C(O)c1cccc2c1Cc1ccccc1-2 [fluorene-1-carboxylic acid],17,–
O=C(O)c1cc2ccccc2[nH]1 [indole-2-carboxylic acid],0,–
O=C(O)c1c[nH]c2ccccc12 [indole-3-carboxylic acid],2,–
O=C(O)c1cccc2[nH]ccc12 [indole-4-carboxylic acid],0,–
O=C(O)c1ccc2[nH]ccc2c1 [indole-5-carboxylic acid],10,–
O=C(O)c1cccnc1 [nicotinic acid],5,quality as substrate of the enzyme (in words) [1]: slower rates than benzoate
O=C(O)Cc1ccccc1 [phenyl acetic acid],43,quality as substrate of the enzyme (in words) [1]: slower rates than benzoate
O=C(O)C(C(=O)O)c1ccccc1 [phenyl malonic acid],3,quality as substrate of the enzyme (in words) [1]: slower rates than benzoate
O=C(O)CC(C(=O)O)c1ccccc1 (stereo not shown) [phenyl succinic acid],11,quality as substrate of the enzyme (in words) [1]: slower rates than benzoate
"COc1cc(C=O)ccc1O [vanillin, 4-hydroxy-3-methoxy-benzaldehyde]",–,yield of vanillin [3]: 96%
